Assay results as given in the supplement of paper PMC11616607.

How the values were obtained:
Test in all cases: drug sensitivity score (DSS) from 5-point dose-response viability curve (DSS (area-under-curve based score)); higher = more sensitive (stronger growth inhibition or killing); extreme values may be limits of the assay
Conditions in all cases: exposure time: 72 h; concentration range: 5 concentrations over 10,000-fold range
CAOV3 = system: CAOV3
Procedure, shortened: (§1)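 Drug sensitivity scores were calculated in Breeze software for each cell line and drug pair; higher scores indicate more sensitivity. A score of zero indicates no response. The underlying assay used 384-well plates: drugs were placed by an Echo 550 acoustic dispenser at five concentrations spanning a 10,000-fold range, 1,500 ovarian cancer or normal ovarian cells were added per well, and cells were kept 3 days at 37°C, 5% CO2. Viability was then measured with CellTiter-Glo luminescence on a PHERAstar FS.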

COV318 = system: COV318
Procedure, shortened: as §1

COV362 = system: COV362
Procedure, shortened: as §1

HOSE1C = system: HOSE1C
Procedure, shortened: as §1

HOSE2C = system: HOSE2C
Procedure, shortened: as §1

JHOS2 = system: JHOS2
Procedure, shortened: as §1

Kuramochi = system: Kuramochi
Procedure, shortened: as §1

OV90 = system: OV90
Procedure, shortened: as §1

OVCAR4 = system: OVCAR4
Procedure, shortened: as §1

OVCAR5 = system: OVCAR5
Procedure, shortened: as §1

OVCAR8 = system: OVCAR8
Procedure, shortened: as §1

Ovsaho = system: Ovsaho
Procedure, shortened: as §1

SMILES	drug sensitivity score (CAOV3)	drug sensitivity score (COV318)	drug sensitivity score (COV362)	drug sensitivity score (HOSE1C)	drug sensitivity score (HOSE2C)	drug sensitivity score (JHOS2)	drug sensitivity score (Kuramochi)	drug sensitivity score (OV90)	drug sensitivity score (OVCAR4)	drug sensitivity score (OVCAR5)	drug sensitivity score (OVCAR8)	drug sensitivity score (Ovsaho)
NC(=O)c1cccc2cn(-c3ccc([C@@H]4CCCNC4)cc3)nc12 [Niraparib]	3.4	1.1	0	3.9	1.9	1.5	1	1.7	0	2.6	4.1	2.1
CC(=O)c1cnc2ccc(-c3cc(Cl)c(O)c(Cl)c3)nc2c1N[C@H]1CC[C@H](CN(C)C)CC1 [OTS167]	13.2	15.1	5.4	19.8	12.4	13.4	10.6	7.5	7.5	11.8	13.6	9.1
O=C(c1cc(Cc2n[nH]c(=O)c3ccccc23)ccc1F)N1CCN(C(=O)C2CC2)CC1 [Olaparib]	4.7	2.9	0.3	0.8	2.5	4.6	3.4	5.4	1.9	2	4.9	2.1
C=CC(=O)Nc1cccc(Oc2nc(Nc3ccc(N4CCN(C)CC4)cc3)nc3ccsc23)c1 [Olmutinib]	0.3	0.3	0.6	0	0	0	0.7	0	0.1	0.7	0	0.5
COC(=O)C[C@](O)(CCCC(C)(C)O)C(=O)O[C@@H]1C(OC)=C[C@]23CCCN2CCc2cc4c(cc2[C@H]13)OCO4 [Omacetaxine]	28.7	17.4	19.2	31	18.6	19.3	18.3	23.3	20.9	23.4	24.1	19.5
CC1(C)CC[C@]2(NC(=O)C(C)(F)F)CC[C@]3(C)[C@H](C(=O)C=C4[C@@]5(C)C=C(C#N)C(=O)C(C)(C)[C@@H]5CC[C@]43C)[C@@H]2C1 [Omaveloxolone]	17.4	10.5	9.2	16.5	16.3	13.3	14.3	18.8	18.6	13.7	18.9	19.6
COc1ncc(-c2ccc3nccc(-c4ccnnc4)c3c2)cc1NS(=O)(=O)c1ccc(F)cc1F [Omipalisib]	16.9	10.7	6.7	16.6	18.1	10.1	16.2	8.6	12.7	18.9	13.3	10.4
CC(C)c1cc(C(=O)N2Cc3ccc(CN4CCN(C)CC4)cc3C2)c(O)cc1O [Onalespib]	11.6	5	7.7	9.2	11.7	12.8	6.6	14.6	6.7	10.6	16.4	3.1
COC[C@H](NC(=O)c1cnc(C)s1)C(=O)N[C@@H](COC)C(=O)N[C@@H](Cc1ccccc1)C(=O)[C@@]1(C)CO1 [Oprozomib]	21.7	24.5	15.1	18.8	17.1	23.9	9.6	21.4	15.2	15.4	12.6	16.1
CNC(=O)c1ccc2cc([C@@]3(O)CCn4cncc43)ccc2c1 [Orteronel]	0	0	0	0	0	0	0	0	0	0	0	0
C=CC(=O)Nc1cc(Nc2nccc(-c3cn(C)c4ccccc34)n2)c(OC)cc1N(C)CCN(C)C [Osimertinib]	5.4	1.3	2.2	4.7	0.9	1.6	3.9	1.4	1.7	5.3	3.7	5.5
O=C(O)C(=O)O.[NH-][C@@H]1CCCC[C@H]1[NH-].[Pt+2] [Oxaliplatin]	11.8	5	0.2	10.7	6	7.8	6.8	6.9	8.5	11.4	6.8	9
C=CCc1cccc(/C=N/NC(=O)CN2CCN(Cc3ccccc3)CC2)c1O [PAC-1]	3.2	0.2	0.4	3.1	2.7	0.7	2.1	2.6	3	1.7	4	4
O=C(Nc1cccnc1)N1CCC(Cc2cccc(Oc3ccc(C(F)(F)F)cn3)c2)CC1 [PF-3845]	1.6	0	0	0	0	0	0	2	0.3	1	6.5	0
COc1ccccc1S(=O)(=O)Nc1ccc2c(c1)CN(C)C(=O)N2 [PFI-1]	7.2	3.1	3	3.1	4.3	2.6	8.7	5.5	4.4	5.7	4.8	8.2
CN1CCN(c2cc(C(=O)Nc3ccc4c(c3)-c3c(c(C(N)=O)nn3-c3ccc(F)cc3)CC4)c(Cl)cn2)CC1 [PHA 408]	6	0.7	0.6	6.5	4.8	6.1	1.8	0.1	4.3	0.5	2.4	6.2
O=C(Nc1cc(Cl)cc2c1[nH]c1cnccc12)c1cccnc1 [PS-1145]	0	0	0	0	0	0	0.6	1	0.3	1.6	0	0
COc1cc(Br)c(Nc2nc(-c3c(C)nc4ncccn34)cs2)c(Br)c1 [PTC-209]	4.1	2.1	0.6	8.1	9.6	6.2	2.7	9.8	3.1	3.5	4.5	1.3
CC(=O)O[C@H]1C(=O)[C@@]2(C)[C@H]([C@H](OC(=O)c3ccccc3)[C@]3(O)C[C@H](OC(=O)[C@H](O)[C@@H](NC(=O)c4ccccc4)c4ccccc4)C(C)=C1C3(C)C)[C@]1(OC(C)=O)CO[C@@H]1C[C@@H]2O [Paclitaxel]	25.9	5.7	8.9	25.1	25	14.4	13.8	14.9	7.8	21.4	27.6	11.8
C1=N/C2=N/c3ccc(OCCN4CCCC4)c(c3)COC/C=C/COCc3cccc(c3)C(=C1)N2 [Pacritinib]	7.6	5.3	6.2	8.2	8.2	7.5	6.5	10.5	6.8	9.4	7.8	8
CC(=O)c1c(C)c2cnc(Nc3ccc(N4CCNCC4)cn3)nc2n(C2CCCC2)c1=O [Palbociclib]	0.1	3.2	1	4.5	2.9	6.3	1.4	0.8	0.1	3.6	0.5	3
COc1ccc(COc2cc3oc(=O)c4cc(C(C)O)ccc4c3cc2OC)cc1 (stereo not given) [Palomid-529]	0	1.2	0	0	0	0	0.1	0.8	0.6	0	0	0.1
Cc1[nH]c2ccccc2c1CCNCc1ccc(/C=C/C(=O)NO)cc1 [Panobinostat]	14.5	10.6	5.8	24.1	21.1	13.1	15.3	18.2	13.5	23.3	21.4	10.8
Cc1ccc(Nc2nccc(N(C)c3ccc4c(C)n(C)nc4c3)n2)cc1S(N)(=O)=O [Pazopanib]	0	0.1	0	0	0	0	0	0	0	0	0	0
Nc1nc2[nH]cc(CCc3ccc(C(=O)N[C@@H](CCC(=O)O)C(=O)O)cc3)c2c(=O)[nH]1 [Pemetrexed]	14.1	0	12.7	22.9	20.4	0	5.8	3.7	4.2	7.6	18.2	6.1
OC[C@H]1O[C@@H](n2cnc3c2N=CNC[C@H]3O)C[C@@H]1O [Pentostatin]	0	0	0	0	1.5	0	0	0	0	0	0	0
CCCCCCCCCCCCCCCCCCOP(=O)([O-])OC1CC[N+](C)(C)CC1 [Perifosine]	0	0	0	0	0	0	0	0	0	0	0	0
NS(=O)(=O)OC[C@@H]1C[C@@H](n2ccc3c(N[C@H]4CCc5ccccc54)ncnc32)C[C@@H]1O [Pevonedistat]	25.6	3.5	8.7	17.2	22.6	15	7.8	16.2	2.6	6.3	16.3	6.1
FC(F)(F)c1ccc(CNc2ccc(Cc3c[nH]c4ncc(Cl)cc34)cn2)cn1 [Pexidartinib]	0.8	0.7	0	0	0	5	0.6	0.7	1.3	2.3	1.8	0.1
CS(=O)(=O)N1CCN(Cc2cc3nc(-c4cccc5[nH]ncc45)nc(N4CCOCC4)c3s2)CC1 [Pictilisib]	9.8	5.3	5.9	6.8	8.2	3.8	10.6	6.2	5.3	12.1	8.3	9.5
